Reference: patent publication US10987319B2, “TFEB activator C1 ameliorates app and tau pathology and rescues cognitive deficits in neurodegenerative diseases” (Hong Kong Baptist University, priority 2018, dated 2021)

What was measured:
Format in all cases: in vivo
[1] = tested on: APP, APP CTFs, Aβ, LC3-II; assay: Western blotting of brain tissue, 5×FAD mice
Description: 5×FAD male mice were inbred with wild-type (WT, C57/BL6) female mice to produce heterozygous offspring. Offspring were genotyped to select 5×FAD (APP KM670/671NL (Swedish), APP I716V (Florida), APP V717I (London), PSEN1 M146L (A>C), PSEN1 L286V) gene mutations mice.
Brain tissues were lysed with RIPA buffer (TBS with 1% NP-40, 1% sodium deoxycholic acid, 0.1% SDS, and protease phosphatase inhibitor cocktails) and centrifuged at 15,000 RPM for 30 min. Supernatant is collected and the pellets were further lysed with 2% SDS in RIPA buffer. Protein concentration was estimated by BCA assay. […] Protein chemiluminescence signal was detected by using ECL kit and quantified using ImageJ software.

3×Tg mice = assay: Morris-water maze
Description: Homozygous 3×Tg mice (APP KM670/671NL (Swedish), MAPT P301L, PSEN1 M146V) were produced in Hong Kong Baptist University animal house and maintained at 23±2° C. temperature, 60±15% relative humidity with free access to food and water ad libitum. Seven months old WT (129/SvJ, n=6 for male mice; n=10 for female mice) and 3×Tg mice (n=6 for male mice; n=10 for female mice) were treated daily with vehicle (1% CMC-Na; Sigma-Aldrich, C5678]), curcumin analogue C1 (2.5 mg/kg, 5 mg/kg, 10 mg/kg) or curcumin (50 mg/kg; Sigma-Aldrich, 08511) suspended in 1% CMC-Na by oral gavage for 7 months. 3×Tg mice were treated with the indicated compounds for 7 months and Morris-water maze (MWM) was used to evaluate the spatial learning memory. MWM is a circular water (21±1° C.) container with 1 meter diameter. Animals were pre-quarantined and acclimatized to the experimenting room at least 1 week before the start of the experiment. The experiment was started with one day visual platform trial. Each mouse underwent 4 visible platform trails (each trial 60 seconds) with different platform placement, positioned above the water level. Hidden platform training was conducted after mixing a non-toxic paint in the water. Mice were trained for 6 continuous days, each day composed of different session with 4 hidden platform trials (each trial 60 seconds). Each session was designed with randomized animal introduction pattern into the water maze with unchanged platform position. Each trial was conducted with 30 min inter-trial interval and provided with external cues. To assess the long term spatial memory retrieval a probe trial (60 seconds) was conducted 24 h after the last training session. During probe trial water maze was divided into 4 quadrants. The hidden platform in the target quadrant was removed after determining its location. Ethnovision XT software was used to observe and record the swimming pattern. During hidden platform training sessions, time spent to find the platform was taken as a parameter to evaluate memory acquisition. In probe trial percentage of time spent in the target quadrant compared to the other 3 quadrants was calculated.

Aβ plaques = assay: Immunohistochemistry of Aβ plaques (4G8 antibody), 3×Tg mice; details: 10 mg/kg oral 7 months
Description: Homozygous 3×Tg mice (APP KM670/671NL (Swedish), MAPT P301L, PSEN1 M146V) were produced in Hong Kong Baptist University animal house and maintained at 23±2° C. temperature, 60±15% relative humidity with free access to food and water ad libitum.
Brain sections (30 μm) were cut on a microtome and stored at 4° C. in PBS+0.1% sodium azide. Sections were permeabilized for 10 min with cold PBS containing 0.5% Triton X-100 and blocked with 3% bovine serum albumin for 1 h at room temperature.

[2] = 5×FAD mice, male and female, 10 mg/kg oral 4 months

Structure (SMILES): COc1ccccc1/C=C/C(=O)/C=C/c1ccccc1OC [Compound C1, 1,5-bis(2-methoxyphenyl)penta-1,4-dien-3-one]
- LC3-II levels in brain (autophagy enhancement) [1, 2]: increase in LC3-II levels
- levels of A3 in brain [1, 2]: significantly reduced
- levels of APP CTFs in brain [1, 2]: significantly reduced
- Fl-APP levels in brain ([1]; female 5×FAD mice, oral 4 months): reduced Fl-APP levels
- percentage of time spent in the target quadrant, probe trial, vs vehicle (3×Tg mice; 2.5 mg/kg oral 7 months): significantly increased
- percentage of time spent in the target quadrant, probe trial, vs vehicle (3×Tg mice; 5 mg/kg oral 7 months): significantly increased
- distance traveled to find the hidden platform vs vehicle (3×Tg mice; 10 mg/kg oral 7 months): significantly reduced
- percentage of time spent in the target quadrant, probe trial, vs vehicle (3×Tg mice; 10 mg/kg oral 7 months): significantly increased
- target recognition compared with curcumin (3×Tg mice; C1 10 mg/kg vs curcumin 50 mg/kg): much better improvement in target recognition than curcumin
- hippocampal Aβ plaque load (Aβ plaques): reduces hippocampal Aβ plaque load
